{"source": "ChEMBL document CHEMBL1201862", "about": "“PubChem BioAssay data set” (2004)", "key": {"[1]": {"assay": "intracellular Trypanosoma cruzi inhibitors in host cells – cell-based, plate reader, cherry-pick samples, set 3, dose response (AID 651818);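 note: compounds incubated with infected cells for about four days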", "format": "functional"}, "[2]": {"target": "Large T antigen (Simian virus 40, UniProt P03070)", "sequence (P03070 whole entry)": "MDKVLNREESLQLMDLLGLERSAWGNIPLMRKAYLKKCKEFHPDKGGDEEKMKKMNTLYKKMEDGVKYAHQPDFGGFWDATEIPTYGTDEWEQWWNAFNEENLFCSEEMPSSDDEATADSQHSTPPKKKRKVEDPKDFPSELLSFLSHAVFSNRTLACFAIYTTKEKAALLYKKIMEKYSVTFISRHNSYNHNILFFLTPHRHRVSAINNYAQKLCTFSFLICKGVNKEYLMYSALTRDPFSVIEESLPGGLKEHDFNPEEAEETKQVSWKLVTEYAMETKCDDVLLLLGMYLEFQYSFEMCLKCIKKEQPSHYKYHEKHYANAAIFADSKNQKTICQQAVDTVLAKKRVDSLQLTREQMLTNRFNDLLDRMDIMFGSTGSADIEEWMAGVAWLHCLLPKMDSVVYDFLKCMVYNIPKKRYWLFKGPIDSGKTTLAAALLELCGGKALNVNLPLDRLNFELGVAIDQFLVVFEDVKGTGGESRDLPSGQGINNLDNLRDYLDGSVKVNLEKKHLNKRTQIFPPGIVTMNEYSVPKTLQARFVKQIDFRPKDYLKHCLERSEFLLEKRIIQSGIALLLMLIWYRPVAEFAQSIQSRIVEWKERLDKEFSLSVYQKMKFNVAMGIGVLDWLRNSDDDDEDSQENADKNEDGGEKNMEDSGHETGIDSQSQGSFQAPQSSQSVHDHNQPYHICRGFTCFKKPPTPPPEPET", "format": "functional, Betapolyomavirus macacae"}, "[3]": {"target": "T1, Protein skinhead-1 (Caenorhabditis elegans, UniProt P34707)", "T1 sequence (P34707 whole entry)": "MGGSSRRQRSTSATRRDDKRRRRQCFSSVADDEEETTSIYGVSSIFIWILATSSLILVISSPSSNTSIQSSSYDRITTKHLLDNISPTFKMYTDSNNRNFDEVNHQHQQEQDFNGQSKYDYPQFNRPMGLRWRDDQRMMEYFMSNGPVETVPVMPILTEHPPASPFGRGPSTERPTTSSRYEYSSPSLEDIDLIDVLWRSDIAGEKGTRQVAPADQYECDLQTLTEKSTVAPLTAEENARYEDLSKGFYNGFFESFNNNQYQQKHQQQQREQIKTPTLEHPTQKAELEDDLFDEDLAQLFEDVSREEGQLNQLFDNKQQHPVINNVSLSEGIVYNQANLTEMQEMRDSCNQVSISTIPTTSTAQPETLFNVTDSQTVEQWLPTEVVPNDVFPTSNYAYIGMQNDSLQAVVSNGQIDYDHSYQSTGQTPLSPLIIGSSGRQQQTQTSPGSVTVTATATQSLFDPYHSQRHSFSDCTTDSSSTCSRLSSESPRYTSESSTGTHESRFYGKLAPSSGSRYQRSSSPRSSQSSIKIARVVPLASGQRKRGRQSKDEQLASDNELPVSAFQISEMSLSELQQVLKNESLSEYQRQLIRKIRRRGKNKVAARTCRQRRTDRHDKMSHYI", "format": "functional"}, "[4]": {"target": "T2, RNA-binding protein pos-1 (Caenorhabditis elegans, UniProt G5EF15)", "T2 sequence (G5EF15 whole entry)": "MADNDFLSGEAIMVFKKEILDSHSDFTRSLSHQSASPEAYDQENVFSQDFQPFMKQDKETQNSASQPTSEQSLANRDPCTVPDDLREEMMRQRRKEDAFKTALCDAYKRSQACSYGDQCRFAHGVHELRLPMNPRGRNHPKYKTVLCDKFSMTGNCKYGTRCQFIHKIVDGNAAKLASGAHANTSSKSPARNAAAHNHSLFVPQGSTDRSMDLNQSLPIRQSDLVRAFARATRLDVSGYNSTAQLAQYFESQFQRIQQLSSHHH", "assay": "inhibitors of POS-1/mex-3 RNA binding, dose response, biochemical, fluorescence polarization (AID 1964);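 note: purified POS-1 fused to maltose binding protein made in E. coli; potency of compounds blocking POS-1 binding to fluorescent RNA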"}, "[5]": {"tested_on": "BJ", "assay": "cytotoxicity toward BJ-TERT fibroblasts, dose response, cell-based, RAS-independent, luminescence (AID 1933)", "format": "functional", "settings": "Homo sapiens"}, "[6]": {"target": "T3, Zinc finger protein mex-5 (Caenorhabditis elegans, UniProt Q9XUB2)", "T3 sequence (Q9XUB2 whole entry)": "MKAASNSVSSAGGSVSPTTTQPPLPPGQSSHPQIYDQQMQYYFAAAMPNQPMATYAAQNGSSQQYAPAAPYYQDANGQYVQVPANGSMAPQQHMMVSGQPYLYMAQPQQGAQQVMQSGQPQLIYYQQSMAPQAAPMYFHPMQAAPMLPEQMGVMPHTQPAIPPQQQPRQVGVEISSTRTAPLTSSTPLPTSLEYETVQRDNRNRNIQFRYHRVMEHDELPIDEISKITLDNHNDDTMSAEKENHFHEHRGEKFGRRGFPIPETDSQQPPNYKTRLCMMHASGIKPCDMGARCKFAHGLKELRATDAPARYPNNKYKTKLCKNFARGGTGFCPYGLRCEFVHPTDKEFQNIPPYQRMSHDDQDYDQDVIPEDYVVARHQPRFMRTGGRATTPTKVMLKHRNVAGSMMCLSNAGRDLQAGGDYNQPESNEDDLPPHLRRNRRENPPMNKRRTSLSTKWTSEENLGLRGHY", "assay": "MEX-5/TCR-2 RNA interaction inhibitors, dose response, biochemical, C. elegans, fluorescence polarization (AID 1960)"}, "[7]": {"tested_on": "BJ", "assay": "cells", "format": "functional, cell-based", "settings": "Homo sapiens"}, "[8]": {"tested_on": "BJ", "assay": "cytotoxicity toward BJ-TERT-LT-ST fibroblasts, dose response, cell-based, RAS-independent, luminescence (AID 1935);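 note: BJ fibroblasts immortalized with TERT plus LT and ST oncogenes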", "format": "functional", "settings": "Homo sapiens"}, "[9]": {"assay": "cytotoxicity toward DRD oncogenic fibroblasts, dose response, cell-based, non-viral oncogenic, luminescence (AID 1934)", "format": "functional", "settings": "Homo sapiens"}, "[10]": {"assay": "cytotoxicity in HEK-293T cells, dose response, cytotoxicity control for TCR NF-kB inhibitor project, luminescence, T-cell screen hits (AID 489026);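 note: cells exposed to compound about 14 hours before the viability readout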", "format": "functional, cell-based"}, "[11]": {"assay": "inhibitors of HIV Env-driven cell fusion, dose response, cherry-pick (AID 652057)", "format": "functional, cell-based"}, "[12]": {"assay": "ZM109 Env clade C HIV-1 fusion inhibitors, dose response, HeLa effector, CEM target cells, luciferase, cherry-pick (AID 652058)", "format": "functional, cell-based"}, "[13]": {"assay": "inhibitors of clade B AD8 Env fusion, dose response, cell-based, cherry-pick (AID 652062);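 note: potency is for inhibitors of fusion seen as a drop in luminescence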", "format": "functional"}, "[14]": {"assay": "NIH-3T3 fibroblast cytotoxicity, dose response, cytotoxicity control, cell-based, fluorescence, Alamar Blue, secondary assay (AID 2327);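 note: NIH-3T3 mouse fibroblasts cultured with fluconazole at 8 µg/mL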", "format": "functional"}, "[15]": {"assay": "C. albicans growth with fluconazole, confirmation, fluorescence, retest (AID 2467)", "format": "functional, cell-based"}, "[16]": {"assay": "P. falciparum Dd2 growth inhibitors, dose response, SYBR Green, cherry-picked samples (AID 1159567)", "format": "functional, cell-based"}, "[17]": {"assay": "HEp-2 cell cytotoxicity, dose response, cytotoxicity control for RSV inhibitor project, HTS (AID 2410)", "format": "functional", "settings": "human respiratory syncytial virus"}, "[18]": {"target": "Cytochrome P450 2C9 (Homo sapiens, UniProt P11712)", "sequence (P11712 whole entry)": "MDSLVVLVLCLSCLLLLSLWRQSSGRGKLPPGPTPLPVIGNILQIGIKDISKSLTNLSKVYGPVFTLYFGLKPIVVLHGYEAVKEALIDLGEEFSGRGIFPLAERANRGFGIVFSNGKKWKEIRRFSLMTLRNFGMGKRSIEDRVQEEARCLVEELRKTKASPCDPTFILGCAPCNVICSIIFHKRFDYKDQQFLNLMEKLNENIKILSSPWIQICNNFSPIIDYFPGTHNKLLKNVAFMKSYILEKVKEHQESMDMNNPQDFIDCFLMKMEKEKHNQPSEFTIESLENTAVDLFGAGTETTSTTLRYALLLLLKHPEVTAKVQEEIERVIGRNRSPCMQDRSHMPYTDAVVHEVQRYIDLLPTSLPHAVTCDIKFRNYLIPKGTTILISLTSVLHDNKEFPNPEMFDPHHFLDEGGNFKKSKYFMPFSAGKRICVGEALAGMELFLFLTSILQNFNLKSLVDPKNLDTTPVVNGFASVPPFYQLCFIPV"}, "[19]": {"target": "Induced myeloid leukemia cell differentiation protein Mcl-1 (Homo sapiens, UniProt Q07820)", "sequence (Q07820 whole entry)": "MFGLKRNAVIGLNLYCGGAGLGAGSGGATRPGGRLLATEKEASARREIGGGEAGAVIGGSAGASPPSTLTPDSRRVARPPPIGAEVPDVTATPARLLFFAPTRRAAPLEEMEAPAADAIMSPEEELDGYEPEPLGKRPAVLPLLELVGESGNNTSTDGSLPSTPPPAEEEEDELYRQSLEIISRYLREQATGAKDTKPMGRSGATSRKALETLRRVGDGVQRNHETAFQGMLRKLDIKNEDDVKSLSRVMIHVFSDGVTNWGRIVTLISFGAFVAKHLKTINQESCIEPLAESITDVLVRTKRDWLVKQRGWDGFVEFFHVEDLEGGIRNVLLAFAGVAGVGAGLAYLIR", "format": "functional"}, "[20]": {"target": "T4, Fatty acid synthase (Homo sapiens, UniProt P49327)", "T4 sequence (P49327 whole entry, the tested form may be a part)": "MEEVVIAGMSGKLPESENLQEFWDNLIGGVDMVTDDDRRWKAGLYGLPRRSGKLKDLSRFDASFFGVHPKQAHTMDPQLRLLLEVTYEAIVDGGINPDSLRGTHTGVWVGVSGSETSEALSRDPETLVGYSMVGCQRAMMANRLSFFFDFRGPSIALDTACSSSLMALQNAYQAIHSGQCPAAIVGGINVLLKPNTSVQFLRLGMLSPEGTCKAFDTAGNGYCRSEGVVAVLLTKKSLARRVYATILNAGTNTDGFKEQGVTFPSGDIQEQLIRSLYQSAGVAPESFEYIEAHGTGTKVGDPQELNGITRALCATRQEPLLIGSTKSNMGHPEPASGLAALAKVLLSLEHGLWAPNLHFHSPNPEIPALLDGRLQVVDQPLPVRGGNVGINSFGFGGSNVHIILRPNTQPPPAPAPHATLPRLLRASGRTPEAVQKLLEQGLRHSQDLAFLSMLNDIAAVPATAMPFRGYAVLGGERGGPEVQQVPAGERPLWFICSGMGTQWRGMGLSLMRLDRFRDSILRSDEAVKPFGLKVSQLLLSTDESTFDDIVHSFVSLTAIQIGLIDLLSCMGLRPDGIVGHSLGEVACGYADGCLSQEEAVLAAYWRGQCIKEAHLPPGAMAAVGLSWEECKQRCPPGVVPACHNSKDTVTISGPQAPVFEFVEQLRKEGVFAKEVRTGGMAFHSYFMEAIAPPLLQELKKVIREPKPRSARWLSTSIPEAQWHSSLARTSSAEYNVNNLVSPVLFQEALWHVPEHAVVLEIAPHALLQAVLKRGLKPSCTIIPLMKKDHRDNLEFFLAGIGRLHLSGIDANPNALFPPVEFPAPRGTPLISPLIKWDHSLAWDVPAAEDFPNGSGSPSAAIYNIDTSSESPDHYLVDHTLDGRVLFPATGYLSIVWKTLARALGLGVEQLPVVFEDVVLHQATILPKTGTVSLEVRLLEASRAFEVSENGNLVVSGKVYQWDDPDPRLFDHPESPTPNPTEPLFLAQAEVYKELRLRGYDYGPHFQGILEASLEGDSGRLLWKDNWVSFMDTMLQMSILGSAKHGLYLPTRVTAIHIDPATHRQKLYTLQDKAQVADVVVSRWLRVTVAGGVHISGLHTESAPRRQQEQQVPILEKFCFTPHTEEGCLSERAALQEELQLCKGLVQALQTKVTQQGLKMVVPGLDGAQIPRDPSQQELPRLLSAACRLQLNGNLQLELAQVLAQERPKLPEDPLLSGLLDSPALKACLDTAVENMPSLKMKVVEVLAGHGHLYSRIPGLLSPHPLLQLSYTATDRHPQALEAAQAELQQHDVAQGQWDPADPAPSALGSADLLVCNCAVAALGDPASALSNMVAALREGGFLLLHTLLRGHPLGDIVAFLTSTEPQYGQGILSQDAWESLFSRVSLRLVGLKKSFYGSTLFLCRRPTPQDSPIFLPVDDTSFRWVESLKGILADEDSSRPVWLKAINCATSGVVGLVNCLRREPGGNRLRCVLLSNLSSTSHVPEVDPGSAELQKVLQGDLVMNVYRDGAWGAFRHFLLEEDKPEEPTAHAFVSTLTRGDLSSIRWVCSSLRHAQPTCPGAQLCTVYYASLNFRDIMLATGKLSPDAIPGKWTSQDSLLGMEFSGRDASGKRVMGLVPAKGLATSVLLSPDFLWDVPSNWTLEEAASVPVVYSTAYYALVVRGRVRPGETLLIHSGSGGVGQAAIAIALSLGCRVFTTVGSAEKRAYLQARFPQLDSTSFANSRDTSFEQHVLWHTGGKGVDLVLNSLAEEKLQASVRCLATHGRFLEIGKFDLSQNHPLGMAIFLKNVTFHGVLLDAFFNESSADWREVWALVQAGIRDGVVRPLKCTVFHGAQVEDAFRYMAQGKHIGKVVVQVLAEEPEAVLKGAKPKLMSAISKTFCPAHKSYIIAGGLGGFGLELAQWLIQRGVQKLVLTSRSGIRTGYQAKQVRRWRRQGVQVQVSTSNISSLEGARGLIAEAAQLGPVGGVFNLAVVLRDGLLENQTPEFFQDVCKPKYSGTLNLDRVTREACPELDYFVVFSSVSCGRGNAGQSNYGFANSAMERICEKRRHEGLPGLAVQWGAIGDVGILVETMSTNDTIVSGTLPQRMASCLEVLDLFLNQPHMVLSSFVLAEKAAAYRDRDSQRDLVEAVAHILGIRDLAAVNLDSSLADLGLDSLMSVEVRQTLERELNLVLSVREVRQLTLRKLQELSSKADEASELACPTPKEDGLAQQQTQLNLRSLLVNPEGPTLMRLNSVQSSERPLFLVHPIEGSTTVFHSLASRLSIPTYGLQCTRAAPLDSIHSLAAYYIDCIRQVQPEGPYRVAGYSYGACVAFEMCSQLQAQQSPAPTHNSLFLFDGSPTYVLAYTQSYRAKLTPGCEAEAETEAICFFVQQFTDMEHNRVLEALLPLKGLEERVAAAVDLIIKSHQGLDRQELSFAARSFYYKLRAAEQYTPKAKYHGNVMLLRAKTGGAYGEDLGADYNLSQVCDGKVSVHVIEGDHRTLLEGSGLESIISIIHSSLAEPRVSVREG", "assay": "FAS thioesterase domain inhibitors, dose response, biochemical, endpoint fluorescence intensity, uHTS hits (AID 624327);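 note: fluorescence from hydrolysis of an O-methyl fluorescein acyl ester substrate by the enzyme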", "format": "functional"}, "[21]": {"target": "T4, Fatty acid synthase", "assay": "FAS thioesterase domain inhibitors, dose response, biochemical, kinetic fluorescence intensity (AID 624326);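 note: rate of fluorescence rise from hydrolysis of a fluorogenic O-methyl fluorescein ester substrate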", "format": "functional"}, "[22]": {"target": "Cytochrome P450 3A4 (Homo sapiens, UniProt P08684)", "sequence (P08684 whole entry)": "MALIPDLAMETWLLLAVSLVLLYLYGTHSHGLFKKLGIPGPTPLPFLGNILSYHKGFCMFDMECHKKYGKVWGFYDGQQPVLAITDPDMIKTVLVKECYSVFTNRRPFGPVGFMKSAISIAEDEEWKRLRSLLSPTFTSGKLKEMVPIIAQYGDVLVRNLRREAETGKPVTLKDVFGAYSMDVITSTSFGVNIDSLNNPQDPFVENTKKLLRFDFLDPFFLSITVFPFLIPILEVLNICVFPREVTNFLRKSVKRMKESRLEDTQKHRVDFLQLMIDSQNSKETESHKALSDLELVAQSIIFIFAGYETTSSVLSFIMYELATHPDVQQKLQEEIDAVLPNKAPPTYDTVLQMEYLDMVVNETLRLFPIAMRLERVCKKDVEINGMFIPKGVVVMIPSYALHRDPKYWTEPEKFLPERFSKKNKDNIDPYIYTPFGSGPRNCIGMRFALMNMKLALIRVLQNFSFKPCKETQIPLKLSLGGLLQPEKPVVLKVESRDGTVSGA"}}, "note": "Activity calls are given as the source filed them.", "data": [{"compound": "C[C@@H]1CN([C@H](C)CO)C(=O)c2cccc(NC(=O)NC3CCCCC3)c2O[C@@H]1CN(C)Cc1ccc(C(=O)Nc2ccccc2N)cc1", "values": [{"measurement": "AC50", "setting": "[1]", "result": "3.74 µM (active)"}]}, {"compound": "Cc1noc(C)c1S(=O)(=O)Nc1ccc2c(c1)C(=O)N([C@H](C)CO)C[C@H](C)[C@@H](CN(C)Cc1ccc(C(=O)Nc3ccccc3N)cc1)OCCCC[C@@H](C)O2", "values": [{"measurement": "AC50", "setting": "[1]", "result": "2.18 µM (active)"}]}, {"compound": "COc1ccc(S(=O)(=O)Nc2ccc3c(c2)CC(=O)N([C@@H](C)CO)C[C@@H](C)[C@@H](CN(C)Cc2ccc(Cl)c(Cl)c2)O3)cc1", "values": [{"measurement": "AC50", "setting": "[1]", "result": "4.36 µM (active)"}]}, {"compound": "COc1cc(/C=C(\\C#N)c2ccccn2)cc(OC)c1O", "values": [{"measurement": "IC50", "setting": "[2]", "result": "14.5 µM (active)"}]}, {"compound": "O=C(NCc1cccs1)c1csc([C@@H]2O[C@H](CO)[C@H](O)[C@H](O)[C@H]2O)n1", "values": [{"measurement": "IC50", "setting": "[3]", "result": "> 100 µM (inactive)"}]}, {"compound": "C[C@@H]1CCCCO[C@H](CN(C)C(=O)Nc2ccc(C(F)(F)F)cc2)[C@@H](C)CN([C@H](C)CO)C(=O)c2cc(NC(=O)Nc3ccc4c(c3)OCO4)ccc2O1", "values": [{"measurement": "AC50", "setting": "[1]", "result": "1.68 µM (active)"}]}, {"compound": "Cn1cc(/C=N/n2cnc3scc(-c4ccc(Cl)cc4)c3c2=O)c2ccccc21", "values": [{"measurement": "EC50", "setting": "[4]", "result": "> 300 µM (not active)"}, {"measurement": "EC50", "setting": "[5]", "result": "1.07 µM (active)"}, {"measurement": "EC50", "setting": "[6]", "result": "> 300 µM (not active)"}, {"measurement": "EC50", "setting": "[7]", "result": "1.77 µM (active)"}, {"measurement": "EC50", "setting": "[8]", "result": "1.1 µM (active)"}, {"measurement": "EC50", "setting": "[9]", "result": "0.85 µM (active)"}, {"measurement": "IC50", "setting": "[10]", "result": "> 80 µM (inactive)"}]}, {"compound": "C[C@H]1CN([C@@H](C)CO)C(=O)c2c(c3ccccc3n2C)-c2ccccc2CO[C@H]1CN(C)C(=O)C1CC1", "values": [{"measurement": "AC50", "setting": "[11]", "result": "362 nM (active)"}, {"measurement": "AC50", "setting": "[12]", "result": "462 nM (active)"}, {"measurement": "AC50", "setting": "[13]", "result": "1.18 µM (active)"}]}, {"compound": "CCOc1ccc2c(c1)OC(c1ccc(C)cc1)(C(F)(F)F)NC2=O", "note": "(stereo not drawn)", "values": [{"measurement": "EC50", "setting": "[14]", "result": "> 160 µM (inconclusive)"}, {"measurement": "EC50", "setting": "[5]", "result": "4.54 µM (inconclusive)"}, {"measurement": "EC50", "setting": "[7]", "result": "29.9 µM (inconclusive)"}, {"measurement": "EC50", "setting": "[15]", "result": "> 38 µM (not active)"}, {"measurement": "EC50", "setting": "[8]", "result": "1.32 µM (inconclusive)"}, {"measurement": "EC50", "setting": "[9]", "result": "11.7 µM (inconclusive)"}, {"measurement": "IC50", "setting": "[10]", "result": "> 80 µM (inactive)"}]}, {"compound": "CC(C)C#Cc1ccc([C@@H]2[C@@H](CO)N3C(=O)CN(C(=O)C4CCCCC4)C[C@@H]23)cc1", "values": [{"measurement": "AC50", "setting": "[16]", "result": "7.36 µM (active)"}]}, {"compound": "CCCCCn1c(N)c(C(=O)NCCN2CCOCC2)c2nc3ccccc3nc21", "values": [{"measurement": "IC50", "setting": "[3]", "result": "> 100 µM (inactive)"}]}, {"compound": "CCn1c2ccccc2c2cc(NC(=O)CSc3nnc(-c4ccc(OC)c(OC)c4)n3N)ccc21", "values": [{"measurement": "CC50", "setting": "[17]", "result": "> 50 µM (active)"}, {"measurement": "IC50", "setting": "[3]", "result": "> 100 µM (inactive)"}, {"measurement": "AC50", "setting": "[18]", "result": "22.4 µM (inconclusive)"}]}, {"compound": "O=C(Nc1ccc(N2CCOCC2)cc1)Nc1ccc(Cl)c(Cl)c1", "values": [{"measurement": "IC50", "setting": "[19]", "result": "19.5 µM (not active)"}]}, {"compound": "CC(C)NC(=O)Nc1cccc2c1O[C@H](CN(C)CC1CCCCC1)[C@@H](C)CN([C@H](C)CO)C2=O", "values": [{"measurement": "AC50", "setting": "[1]", "result": "8.41 µM (active)"}]}, {"compound": "CCCn1c(SCC(=O)Nc2ccccc2-c2ccccc2)nnc1-c1ccoc1C", "values": [{"measurement": "IC50", "setting": "[20]", "result": "8.34 µM (active)"}, {"measurement": "IC50", "setting": "[21]", "result": "7.42 µM (active)"}]}, {"compound": "CCS(=O)(=O)N1CCC2(CC1)CN(Cc1ccc3c(c1)OCO3)[C@@H](CO)c1[nH]c3cc(OC)ccc3c12", "values": [{"measurement": "AC50", "setting": "[16]", "result": "8.27 µM (active)"}]}, {"compound": "c1ccc(-c2cc3c(N4CCOCC4)ncnc3s2)cc1", "values": [{"measurement": "IC50", "setting": "[3]", "result": "> 100 µM (inactive)"}]}, {"compound": "O=C(NCCCCc1ccccc1)C1CC(c2ccccc2[N+](=O)[O-])=NO1", "note": "(stereo not drawn)", "values": [{"measurement": "IC50", "setting": "[19]", "result": "7.55 µM (not active)"}, {"measurement": "AC50", "setting": "[22]", "result": "14.1 µM (inconclusive)"}, {"measurement": "AC50", "setting": "[18]", "result": "31.6 µM (inconclusive)"}]}, {"compound": "O=C(/C=C/c1ccc(Cl)cc1Cl)Nc1ccc(CN2CCOCC2)cc1", "values": [{"measurement": "IC50", "setting": "[3]", "result": "27 µM (active)"}]}]}
